Measured values published in patent publication US20260317367A1, “SALTS INCLUDING CRYSTALLINE SALTS OF 25-HYDROXY-CHOLEST-5-EN-3-SULFATE AND METHODS FOR PREPARING SAME” (Durect Corporation, priority 2022, published 2026).
Structures can show the parent of a compound that is named as a salt. One block for each compound: values may come before it.

What was measured:
Format in all cases: physicochemical
[1] = Appearance (color, clumping, flowability) of stored 25HC3S salts
[2] = Solubility of 25HC3S salts after one day at room temperature (HPLC, as free acid)
Outline: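 25HC3S salts were shaken with excess solid at room temperature for one day in organic solvents or aqueous/biorelevant media (FaSSIF, FeSSIF, FaSSGF), then centrifuged. Supernatants were assayed by HPLC against a free-acid standard curve (11 μg/mL to 1.5 mg/mL); values are mg/mL free acid, LOD 0.0007 mg/mL.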

[3] = Hausner ratio and compressibility index of 25HC3S salts; conditions: for Compressibility Index: Table C3 heads this index in %
Outline: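 Powder poured into a 5 mL graduated cylinder to about 5.0 mL (Vo), tapped 200 then 100 more times on a hard surface; final volume Vf recorded after 300 taps. Compressibility index and Hausner ratio calculated from Vo and Vf; flow character classed per USP <1174>.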

[4] = Overall rank order of powder flowability (angle of repose and Hausner ratio); conditions: for Powder flowability, overall (in words): angle of repose and compressibility index/Hausner ratio combined; for Angle of Repose Rank Order / Hausner Ratio Rank Order / Overall Rank Order (Total Score): lower is better flow; for Overall Rank Order (Total Score): sum of both ranks
Description: Table C5 was generated by adding the relative rank order of the 25HC3S salts for angle of repose and Hausner ratio results, and creating an Over All Rank Order of the salts powder flowability. The salts with the lower overall rank order score had better powder flowability.

[5] = Solid-state chemical stability of 25HC3S salts at 2-8° C., 60° C. and 80° C. (HPLC assay and degradation products); conditions: for % Impurities, Total / % Impurities, 25-HC: ND = Not Detected; for Overall physical and chemical stability (in words): 60° C.; for % Impurities, 25-HC: 25-Hydroxy-Cholesterol; for % Recovery: vs 2-8° C.
Outline: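 Crystalline 25HC3S salts (~25 mg powder per vial) stored at 2-8° C. or 80° C., pulled at 3 and 6 weeks; some 3-week 2-8° C. vials moved to 60° C. for 1 week. Dissolved in 100% methanol (sonication/vortexing, centrifugation or dilution), then HPLC against 25HC3S sodium standards (0.75-1.25 mg/mL) for assay and degradants.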

[6] = 2-8° C., 3 wk, listed as 25HC3S choline
[7] = 80° C., 3 wk, listed as 25HC3S choline
[8] = 2-8° C., 5 wk, listed as 25HC3S choline
[9] = 80° C., 5 wk, listed as 25HC3S choline
[10] = 2-8° C., 3 wk, listed as 25HC3S benzathine
[11] = 80° C., 3 wk, listed as 25HC3S benzathine
[12] = 80° C., 5 wk, 50400 min, listed as 25HC3S benzathine

Appearance [1, 6]: White, free flowing powder with clumping
Appearance ([1]; 2-8° C., 5 wk): White, free flowing powder with clumping
Appearance [1, 7]: White, free flowing powder with clumping
Appearance ([1]; 80° C., 5 wk): White, free flowing powder with clumping
Solubility in 5% Dextrose ([2]; room temperature, one day, as free acid, ND = not detected, detection limit 0.7 μg/mL, 1440 min, listed as 25HC3S choline): 93 µg/mL
Solubility in FaSSGF ([2]; FaSSGF, room temperature, one day, as free acid, ND = not detected, detection limit 0.7 μg/mL, 1440 min, listed as 25HC3S choline): 8 µg/mL
Solubility in FaSSGF (in words) ([2]; FaSSGF, room temperature, one day, listed as crystalline 25HC3S choline): low solubility
Solubility in FaSSIF ([2]; FaSSIF, room temperature, one day, as free acid, 1440 min, listed as 25HC3S choline): 152 µg/mL
Solubility in FaSSIF (in words) ([2]; FaSSIF, room temperature, one day, listed as crystalline 25HC3S choline): relatively high solubility
Solubility in FeSSIF ([2]; FeSSIF, room temperature, one day, as free acid, 1440 min, listed as 25HC3S choline): 827 µg/mL
Solubility in FeSSIF (in words) ([2]; FeSSIF, room temperature, one day, listed as crystalline 25HC3S choline): relatively high solubility
Solubility in ACN ([2]; acetonitrile, room temperature, one day, as free acid, 1440 min, listed as 25HC3S choline): 500 µg/mL
Solubility in EtOH ([2]; ethanol, room temperature, one day, as free acid, ≥ = did not reach saturation, 1440 min, listed as 25HC3S choline): 3400 µg/mL
Solubility in IPA ([2]; isopropyl alcohol, room temperature, one day, as free acid, 1440 min, listed as 25HC3S choline): 600 µg/mL
Solubility in MeOH ([2]; methanol, room temperature, one day, as free acid, ≥ = did not reach saturation, 1440 min, listed as 25HC3S choline): 17500 µg/mL
Solubility in saline / 0.9% sodium chloride (in words) ([2]; room temperature, one day, listed as crystalline 25HC3S choline): low solubility
Solubility in H2O ([2]; water, room temperature, one day, as free acid, ND = not detected, detection limit 0.7 μg/mL, 1440 min, listed as 25HC3S choline): 107 µg/mL
Compressibility Index ([3]; listed as 25HC3S choline): 42
Hausner Ratio ([3]; listed as 25HC3S choline): 1.72
Powder flowability, overall (in words) ([4]; listed as choline): next group
Angle of Repose Rank Order ([4]; listed as 25HC3S choline): 4
Hausner Ratio Rank Order ([4]; listed as 25HC3S choline): 15
Overall Rank Order (Total Score) ([4]; listed as 25HC3S choline): 19
Assay ([5]; 2-8° C., 3 wk, 30240 min, listed as 25HC3S choline): 101.6 % w/w
% Impurities, Total [5, 6]: 1.0%
Assay ([5]; 2-8° C., 5 wk, 50400 min, listed as 25HC3S choline): 108.1 % w/w
% Impurities, Total [5, 8]: 0.9%
Overall physical and chemical stability (in words) ([5]; 2-8° C., 80° C.): physically and chemically stable
Overall physical and chemical stability (in words) ([5]; 2-8° C., 80° C., listed as 25HC3S choline): relatively stable
% Impurities, 25-HC [5, 6]: 0.2%
% Impurities, 25-HC [5, 8]: 0.2%
% Impurities, 25-HC [5, 7]: 0.4%
% Impurities, 25-HC [5, 9]: 0.2%
Stressed stability at 80° C. (in words) ([5]; 80° C.): good, stressed stability
% Recovery ([5]; 80° C., 3 wk, 30240 min, listed as 25HC3S choline, 30240 min): 100.8%
Assay ([5]; 80° C., 3 wk, 30240 min, listed as 25HC3S choline): 102.4 % w/w
% Impurities, Total [5, 7]: 1.2%
Assay ([5]; 80° C., 5 wk, 50400 min, listed as 25HC3S choline): 105.2 % w/w
% Impurities, Total [5, 9]: 2.2%
Stability after 5 weeks at 80° C. (in words) ([5]; solid state, 80° C., 5 weeks): stable
remaining at 840 h ([5]; solid state, 80° C., 5 wk, read-out: % Recovery, 2-8° C./5 wk vs 80° C./5 wk): 97.3%
Compound: CC(CCCC(C)(C)O)C1CCC2C3CC=C4CC(OS(=O)(=O)O)CCC4(C)C3CCC12C (stereo not shown) [Salt #4]
Physical and chemical solid-state stability (comments) ([5]; 80° C., 5 weeks): Stable after 5 weeks at 80 °C physically and chemically.

Appearance [1, 10]: White, free flowing powder with some
Appearance ([1]; 2-8° C., 5 wk): White, free flowing powder with clumping
Appearance [1, 11]: White, free flowing powder with clumping
Appearance ([1]; 80° C., 5 wk): White, free flowing powder with clumping
Solubility in 5% Dextrose ([2]; room temperature, one day, as free acid, LOD 0.0007 mg/mL): No solubilized drug was detected
Solubility in FaSSGF (in words) ([2]; FaSSGF, room temperature, one day, listed as crystalline 25HC3S benzathine): low solubility
Solubility in FaSSIF (in words) ([2]; FaSSIF, room temperature, one day, listed as benzathine salt of 25HC3S): low solubility
Solubility in FaSSGF ([2]; Fasted State Simulated Gastric Fluid, pH 1.6, room temperature, one day, as free acid, LOD 0.0007 mg/mL): no solubilized drug was detected
Solubility in FaSSIF ([2]; Fasted State Simulated Intestinal Fluid, room temperature, one day, as free acid, 1440 min): 4 µg/mL
Solubility in FeSSIF (in words) ([2]; FeSSIF, room temperature, one day, listed as benzathine salt of 25HC3S): low solubility
Solubility in FeSSIF ([2]; Fed State Simulated Intestinal Fluid, pH 4.9 to 5.0, room temperature, one day, as free acid, 1440 min): 25 µg/mL
Solubility in all aqueous and organic solvents (in words) ([2]; all the aqueous and organic solvents examined): lowest solubility
Solubility in saline / 0.9% sodium chloride (in words) ([2]; room temperature, one day, listed as crystalline 25HC3S benzathine): low solubility
solubility at 24 h ([2]; water, room temperature, one day, as 25HC3S free acid, read-out: Solubility in water): 6 µg/mL
Compressibility Index ([3]; listed as 25HC3S benzathine): 29
Hausner Ratio ([3]; listed as 25HC3S benzathine): 1.40
Powder flowability, overall (in words) ([4]; listed as benzathine): next group
Angle of Repose Rank Order ([4]; listed as 25HC3S benzathine): 12
Hausner Ratio Rank Order ([4]; listed as 25HC3S benzathine): 7
Overall Rank Order (Total Score) ([4]; listed as 25HC3S benzathine): 19
Assay ([5]; 2-8° C., 3 wk, 30240 min, listed as 25HC3S benzathine): 87.6 % w/w
% Impurities, Total [5, 10]: 64.0%
Assay ([5]; 2-8° C., 5 wk, 50400 min, listed as 25HC3S benzathine): 77.1 % w/w
% Impurities, Total ([5]; 2-8° C., 5 wk, listed as 25HC3S benzathine): 64.2%
Change of assay value (in words) ([5]; 3 weeks and 5 weeks, 2-8° C. and 80° C.): dropped at a similar rate
% Recovery ([5]; 80° C., 3 wk, 30240 min, listed as 25HC3S benzathine, 30240 min): 97.4%
Assay ([5]; 80° C., 3 wk, 30240 min, listed as 25HC3S benzathine): 85.3 % w/w
% Impurities, Total [5, 11]: 64.3%
% Recovery, 2-8° C./5 wk vs 80° C./5 wk [5, 12]: 91.8%
Assay [5, 12]: 70.8 % w/w
% Impurities, Total ([5]; 80° C., 5 wk, listed as 25HC3S benzathine): 65.3%
degraded ([5]; solid state, 3 weeks and 5 weeks, 2-8° C. and 80° C., read-out: Degradation by area normalization): 64 to 65%
Compound: CC(CCCC(C)(C)O)C1CCC2C3CC=C4CC(OS(=O)(=O)O)CCC4(C)C3CCC12C (stereo not shown) [Salt #9]
degradation by area normalization ([5]; 3 and 5 weeks, 2-8° C. and 80° C.): normalization were all approximately 64%-65% indicating that thermal
assay drop (comments) ([5]; 3 weeks at 2-8° C. and 80° C. as well as after 5 weeks): The assay dropped at a similar rate after 3 weeks at 2-8 °C and 80 °C
